# Assays:
# pPERK in Caki-1 tumors = assay: pPERK in Caki-1 tumor xenografts; assay type: in vivo, mouse
# Experimental: Samples were put in 500 μL of Novex lysis buffer consisting of 2× Novex Tris-Glycine SDS sample buffer (ThermoFisher LC2676), 1× Phosphatase Inhibitor Cocktail III (Sigma P0044), 1× PhosphataseArrest I (Gbioscience 113P-D), 1×2-mercaptoethanol (Gibco 21985023), 1× Benzonase (EMD Millipore Corp 70746-3), and 1× Protease inhibitor cocktail tablet (Roche/Sigma 11836170001). Samples were homogenized with the Polytron and heated for 10 min at 95 °C. They were then centrifuged at max speed for 10 min and the supernatant was transferred. Protein concentrations of samples were measured using the Pierce 660 nm Protein assay kit (Thermo Scientific 22660) according to the manufacturer's instructions.
# Western Blot analysis was performed on the SimpleWestern high-throughput protein analysis platform (ProteinSimple 004-650) according to manufacturer's protocol using a 12-230 kDA Separation Module (ProteinSimple SM-W004) and Total Protein Detection Module (ProteinSimple DM-TP01). Antibodies used were: (Add info for other antibodies used) pPERK (Lilly; 1:50) and PERK (Cell Signaling Technology 5683; 1:200). All protein analytes were normalized to total protein loaded on capillary. […]
# [1] = system: myeloid, lymphoid and tumor cells in MB49 model; assay: flow cytometry of tumor, lymph node and blood cells in MB49 model; assay type: in vivo, mouse; conditions: 10, 30 mg/kg (FIG. 8)
# Experimental: C57BL/6 mice were subcutaneously inoculated with MB49 cells, and treatment started on day 8 post cell inoculation. A group of animals (n=10/group) received either vehicle, HC-5404 (PO, BID) (3 mg/kg, 10 mg/kg, or 30 mg/kg), 5 mg/kg anti-PD-1 antibody (aPD-1) (RMP1-14) (IP, BIW), or the combination of both. At various timepoints, animals were sacrificed, and flow cytometry was performed on blood or single cell suspensions from tumors or lymph nodes (n=6).
# Tumor tissue samples were obtained 7 days post treatment (14 days post inoculation). Single cells were prepared by enzymatic digestion of tumor tissues and subsequently analyzed by flow cytometry on a Cytek Aurora. Expression of IFNAR1 (A) and PD-L1 (B) on the myeloid populations and tumors were shown.
# Surface calreticulin was analyzed by flow cytometry on MB49 tumor cells d7 post treatment.
# Single cell suspensions were washed in PBS twice and then stained with the LIVE/DEAD fixable blue dead cell stain (Invitrogen cat #L23105) at 1:3000 dilution for 30 minutes at 4 °C. […]
# LN cells from day 14 post treatment samples were analyzed by flow cytometry. […]
# Whole blood was collected on the indicated date post treatment in a MB49 model. IFNAR1 expression was determined by flow cytometry and gated on CD14+ monocytes […]
# ATF4 levels in HEK293 = assay: HEK293 cell-based ATF4 western blot; conditions: Homo sapiens; HEK293, tunicamycin 1 μM
# Experimental: Cell based assays HEK293 cells were plated at 1×10^6 cells per well and treated with HC-5404 30 minutes prior to addition of tunicamycin (1 μM) to induce ER stress. Cells were harvested 4 hours following tunicamycin addition and lysed for western blotting in RIPA buffer supplemented with protease and phosphatase inhibitors. Total protein concentrations were determined by BCA and […] of protein were loaded on to SDS-PAGE gels, transferred to nitrocellulose and probed with a primary antibody against phosphorylated T-982 of human PERK or total ATF4 followed by incubation with an infrared labelled secondary antibody. Blots were imaged on a LiCor imager and normalized to total protein in the wells using Revert™ stain. Band intensities were quantified and normalized to DMSO treated samples. Normalized band intensities were plotted as percent inhibition against 10-point; 3-fold dilution series of HC-5404. IC50 values were calculated using 4-parameter logistical fitting in XLFit.
# The cell-based activity of HC-5404 was evaluated using HEK293 treated with tunicamycin (Tm; 1 μM) to induce ER stress.
# 468 unique kinases = assay: KINOMEScan biochemical panel assay; assay type: binding, human
# Experimental: The selectivity of HC-5404 against the broader kinome was then evaluated using a KINOMEScan biochemical panel assay that measured binding against 468 unique kinases, including 403 wild-type human kinases and 59 mutant isoforms.
# [2] = system: ASNS and PSAT1 in MFE280 tumors; assay: ASNS and PSAT1 in MFE280 tumors; assay type: in vivo, mouse; conditions: 7 days, HC-5404 30 mpk BID
# RXF-2667 = assay: RCC PDX single animal trial, RXF-2667; assay type: in vivo, mouse; conditions: HC-5404 30 mg/kg PO BID, n=1
# Source text: This example investigated the effect of HC-5404 in combination with VEGFR-TKIs in inhibiting tumor growth using 12 RCC PDX tumor models, following procedures analogous to those described above.
# Single animal per group (n=1) trial of animals harboring diverse RCC PDX models were used in this study.
structure (smiles),measurement,setting,value
"Cc1cc(NC(=O)[C@H](O)c2cc(F)cc(F)c2)ccc1-c1cnc(N)c(C(=O)NC(C)C)c1 [HC-5404, (R)-2-amino-5-(4-(2-(3,5-difluorophenyl)-2-hydroxyacetamido)-2-methylphenyl)-N-isopropylnicotinamide]",pPERK expression in Caki-1,"pPERK in Caki-1 tumors; 30 mg/kg PO BID, seven days (FIG. 30)",strongly inhibited pPERK expression
same,pPERK levels in Caki-1,"pPERK in Caki-1 tumors; DC-101 study, 4 days of treatment, low signal-to-noise (FIG. 37)",not affected
same,effect on IFNAR1 on monocytes in peripheral blood,[1],also detected on monocytes in peripheral blood
same,IC50,ATF4 levels in HEK293,115 nM
same,interactions in kinome panel,"468 unique kinases; 100 nM, PERK not in panel",no interactions observed
same,number of kinases inhibited >65%,"468 unique kinases; 10,000 nM",9 kinases
same,ASNS,[2]; lenvatinib 10 mpk QD (FIG. 79),induces ASNS
same,PSAT1,[2]; lenvatinib 10 mpk QD (FIG. 80),induces
same,antitumor efficacy as monotherapy,RXF-2667,exhibited antitumor efficacy
